Experimental data: article PMC10850954, “HDAC6/aggresome processing pathway importance for inflammasome formation is context-dependent” (The Journal of Biological Chemistry, 2024)

Legend:
[1] = test system: pyrin inflammasome; assay: IL-18 release in U937-pyrin cells after BAA473 activation; format: cell-based, human; details: BAA473 200 μM 4 h, vs DMSO or XY-07-191 control
Description: Cells were treated with the indicated compounds and HDAC6 was detected by immunoblotting with an anti-HDAC6 antibody. Detection of actin was used as a control for protein loading. […] Pyrin inflammasome was activated by BAA473 (200 μM) for 4 h at 37 °C. […] The graph at the bottom presents IL-18 release based on four independent experiments.
Human IL-1β and IL-18 were determined with Cisbio HTRF Cisbio Human IL1β (#62HIL1BPET) and Human IL18 (#62HIL18PEG) protocols. All the data were from 3 or 4 independent biological replicates.
For pyrin inflammasome, U937-pyrin cells were seeded in 96 well after 0.5 μM PMA treatment for 3 h and then challenged by BAA473 (200 μM) for 4 h at 37 °C.

[2] = test system: Jurkat cells; assay: CTG cell viability assay; format: cell-based; details: broad concentration range, 70 h
Description: (§1) U937, Jurkat, and HEK293T cells were plated with a density of 10^5 cells/ml, with 50 μl/well in a white 384 well plate (Corning #3570). Two hours after plating, XY-07-035 was dispensed to each well using HPd300e and incubated at 37 °C for 70 h. CellTiter-Glo (CTG) Luminescent Cell Viability Assay (Promega #G7572) was then used to measure cell viability. Aliquoted frozen CTG reagent and cell plates were warmed to room temperature prior to loading. After the plates were cooled to room temperature, the CTG reagent was loaded 15 μl/well with an electronic multichannel pipette. […] The luminescence signal was read over ten cycles for each data point on a PHERAstar FS microplate reader (BMG Labtech). The Relative abundance was calculated as the sum of the averages of duplicate individual 12-point dose-response data points.
(§2) Supplementary file mmc1.pdf: Supporting Figure S1 BMDM cells were primed by LPS (1 μg/ml) for 4 hrs and then challenged with 20 μM nigericin. 50 μl supernatant was collected every 15 min (up to 90 min) and mIL-1β level was determined by HTRF assay. […] DARPin F10 was detected by anti-HA antibody. […] Cells were treated with different concentrations of the degrader, and cell viability determined by CTG assay was normalized to the non-treated group. […] Supporting Figure S4: Cell viability was measured by resazurin assay, and fluorescence intensity was a representative of the viability.

[3] = test system: HEK293T cells; assay: CTG cell viability assay; format: cell-based; details: broad concentration range, 70 h
Description: as §1, §2

[4] = molecular target: T1, HDAC6 (Homo sapiens, UniProt Q9UBN7); assay: HDAC6 degradation in pyrin-expressing U937 cells (immunoblot); format: cell-based; parameters: endogenous in cells; details: 0.1 μM to 10 μM
T1 sequence (Q9UBN7 1-1215): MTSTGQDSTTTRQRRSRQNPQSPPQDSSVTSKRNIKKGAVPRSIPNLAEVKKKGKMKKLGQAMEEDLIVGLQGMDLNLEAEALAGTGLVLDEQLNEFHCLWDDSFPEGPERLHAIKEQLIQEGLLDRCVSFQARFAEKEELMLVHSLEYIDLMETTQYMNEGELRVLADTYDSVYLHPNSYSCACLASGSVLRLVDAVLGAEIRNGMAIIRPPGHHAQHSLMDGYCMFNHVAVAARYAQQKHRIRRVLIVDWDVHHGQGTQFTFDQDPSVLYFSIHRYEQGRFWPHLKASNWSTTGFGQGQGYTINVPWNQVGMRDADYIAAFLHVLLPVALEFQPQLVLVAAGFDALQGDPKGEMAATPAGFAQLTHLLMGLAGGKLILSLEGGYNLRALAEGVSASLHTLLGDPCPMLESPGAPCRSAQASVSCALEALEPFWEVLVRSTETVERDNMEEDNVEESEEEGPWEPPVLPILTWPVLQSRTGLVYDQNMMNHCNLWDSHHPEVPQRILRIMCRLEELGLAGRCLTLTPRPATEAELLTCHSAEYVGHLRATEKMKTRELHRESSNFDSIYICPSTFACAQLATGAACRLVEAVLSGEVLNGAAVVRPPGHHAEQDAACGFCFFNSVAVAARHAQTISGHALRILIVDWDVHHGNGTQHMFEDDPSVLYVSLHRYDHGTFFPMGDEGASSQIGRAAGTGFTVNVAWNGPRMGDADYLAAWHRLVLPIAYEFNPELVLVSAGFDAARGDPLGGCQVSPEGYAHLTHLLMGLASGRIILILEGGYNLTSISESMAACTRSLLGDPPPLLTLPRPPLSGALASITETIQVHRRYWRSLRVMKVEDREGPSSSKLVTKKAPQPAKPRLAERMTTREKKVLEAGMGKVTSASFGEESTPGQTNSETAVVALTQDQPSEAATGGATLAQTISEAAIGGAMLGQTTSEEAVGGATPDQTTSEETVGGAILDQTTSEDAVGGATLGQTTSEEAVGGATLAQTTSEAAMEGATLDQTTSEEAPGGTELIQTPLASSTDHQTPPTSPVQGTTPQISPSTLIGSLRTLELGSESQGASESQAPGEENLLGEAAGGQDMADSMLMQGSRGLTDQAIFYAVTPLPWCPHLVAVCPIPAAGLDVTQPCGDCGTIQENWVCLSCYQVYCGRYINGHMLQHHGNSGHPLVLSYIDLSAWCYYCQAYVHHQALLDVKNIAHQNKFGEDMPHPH
Description: Cells were treated with the indicated compounds and HDAC6 was detected by immunoblotting with an anti-HDAC6 antibody. Detection of actin was used as a control for protein loading. […] The membrane was blocked with 5% milk-TBS, and then incubated with primary antibodies overnight at 4 °C. The signal was developed with HRP-conjugated secondary antibodies and Amersham ECL Western Blotting Detection Reagent (Cytiva#RPN2106).

**Q.** Which results are given for `CN(C(=O)CCCNc1cccc2c1C(=O)N(C1CCC(=O)NC1=O)C2=O)c1ccc(NC(=O)CCCCCCC(=O)NO)cc1` (stereo not shown) [XY-07-35]?
**A.** change in IL-18 secretion [1]: did not result in any change; cellular toxicity [2]: does not show cellular toxicity; cellular toxicity [3]: does not show cellular toxicity; HDAC6 degradation [4]: efficiently degraded
